Laboratory results from ChEMBL document CHEMBL1133963, “Furans with basic side chains: synthesis and biological evaluation of a novel series of antagonists with selectivity for the estrogen receptor alpha” (Bioorg Med Chem Lett, 2001).
pIC50: −log10 of the molar value.

How the values were obtained:
Estrogen receptor beta [1] = molecular target: T1, Estrogen receptor beta (Homo sapiens, UniProt Q92731); assay: Displacement of [3H]estradiol from Estrogen receptor beta
Estrogen receptor [2] = molecular target: T2, Estrogen receptor (Homo sapiens, UniProt P03372); assay: Displacement of [3H]estradiol from Estrogen receptor alpha
T2 sequence (P03372 whole entry): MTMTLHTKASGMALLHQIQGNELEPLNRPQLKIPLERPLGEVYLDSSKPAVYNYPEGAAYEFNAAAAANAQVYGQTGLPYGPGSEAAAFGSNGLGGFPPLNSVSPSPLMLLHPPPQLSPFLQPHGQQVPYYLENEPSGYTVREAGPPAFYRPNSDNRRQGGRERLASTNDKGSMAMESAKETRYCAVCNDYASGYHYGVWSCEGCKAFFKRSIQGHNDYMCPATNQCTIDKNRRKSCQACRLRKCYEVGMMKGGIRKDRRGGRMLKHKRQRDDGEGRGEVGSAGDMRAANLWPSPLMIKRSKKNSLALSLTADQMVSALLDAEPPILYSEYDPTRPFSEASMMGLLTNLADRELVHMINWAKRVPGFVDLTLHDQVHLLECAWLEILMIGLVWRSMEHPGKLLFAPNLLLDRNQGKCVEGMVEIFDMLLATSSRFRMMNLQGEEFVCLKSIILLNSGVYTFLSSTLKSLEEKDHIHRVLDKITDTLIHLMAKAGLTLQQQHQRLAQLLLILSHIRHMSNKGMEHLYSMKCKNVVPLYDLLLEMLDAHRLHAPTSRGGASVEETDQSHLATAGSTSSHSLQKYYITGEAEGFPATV

Estrogen receptor [3] = molecular target: T2, Estrogen receptor; assay: Inhibitory activity against Estrogen receptor alpha
Estrogen receptor beta [4] = molecular target: T1, Estrogen receptor beta; assay: Inhibitory activity against Estrogen receptor beta

T1 sequence (Q92731 whole entry): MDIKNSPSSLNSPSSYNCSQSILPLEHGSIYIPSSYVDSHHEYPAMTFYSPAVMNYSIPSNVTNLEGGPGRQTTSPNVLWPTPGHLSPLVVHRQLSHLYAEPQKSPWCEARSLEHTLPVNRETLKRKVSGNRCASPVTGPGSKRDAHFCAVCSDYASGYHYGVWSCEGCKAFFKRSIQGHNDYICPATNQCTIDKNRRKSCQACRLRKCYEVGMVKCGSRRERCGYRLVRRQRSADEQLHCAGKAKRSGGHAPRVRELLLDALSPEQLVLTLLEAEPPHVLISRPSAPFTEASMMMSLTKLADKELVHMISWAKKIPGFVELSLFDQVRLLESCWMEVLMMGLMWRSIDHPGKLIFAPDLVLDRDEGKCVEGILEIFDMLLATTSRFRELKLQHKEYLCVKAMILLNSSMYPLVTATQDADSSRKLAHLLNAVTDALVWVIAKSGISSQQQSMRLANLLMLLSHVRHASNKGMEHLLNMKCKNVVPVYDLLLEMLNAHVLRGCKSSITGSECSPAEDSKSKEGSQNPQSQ

RBA (Estrogen receptor beta [1]) | RBA (Estrogen receptor [2]) | pIC50 (Estrogen receptor [3]) | pIC50 (Estrogen receptor beta [4]) | Structure (SMILES)
3.1% | 75% | 7.19 | 6.32 | CCc1c(-c2ccc(O)cc2)oc(-c2ccc(O)cc2)c1-c1ccc(OCCN2CCCCC2)cc1
0.47% | 32% | – | – | Cc1c(-c2ccc(O)cc2)oc(-c2ccc(O)cc2)c1-c1ccc(OCCN2CCCCC2)cc1
0.06% | 0.36% | – | – | CCc1c(-c2ccc(OCCN3CCCCC3)cc2)oc(-c2ccc(O)cc2)c1-c1ccc(O)cc1

More lines, now with the values behind:

Structure (SMILES) | RBA (Estrogen receptor beta [1]) | RBA (Estrogen receptor [2]) | pIC50 (Estrogen receptor [3]) | pIC50 (Estrogen receptor beta [4])
CCc1c(-c2ccc(O)cc2)oc(-c2ccccc2)c1-c1ccc(OCCN2CCCCC2)cc1 | 0.43% | 3.8% | – | –
CCc1c(-c2ccc(O)cc2)oc(-c2ccc(O)cc2)c1-c1ccc(OC)cc1 | 0.91% | 2.5% | – | –
CCc1c(-c2ccccc2)oc(-c2ccc(O)cc2)c1-c1ccc(OCCN2CCCCC2)cc1 | 20% | 60% | – | –
CCCc1c(-c2ccc(O)cc2)oc(-c2ccc(O)cc2)c1-c1ccc(OCCN2CCCCC2)cc1 | 4% | 34% | – | –
